Laboratory results published in PMC5435703 (Scientific Reports, 2017).
Values after ≈ are worked out from the molar mass of the structure shown. Where two headings read alike, the source gives them in different places. Marks after values point to notes of the source that are not given here.

What was measured:
[1] = system: MRSA BAA-1707; assay: MIC broth microdilution assay; type: cell-based, Staphylococcus aureus
[2] = system: MRSE 35984; assay: MIC broth microdilution assay; type: cell-based, Staphylococcus epidermidis
[3] = system: VRE 700221; assay: MIC broth microdilution assay; type: cell-based, Enterococcus faecium
[4] = system: MRSA BAA-1707; assay: Calgary Biofilm Device (CBD) MBC/MBEC assay; type: cell-based, Staphylococcus aureus
[5] = system: VRE 700221; assay: Calgary Biofilm Device (CBD) MBC/MBEC assay; type: cell-based, Enterococcus faecium; conditions: for VRE 700221 MBEC: biofilm eradication; for MBC: read-out: VRE 700221 MBC
[6] = system: MRSA-1707 biofilms; assay: CBD pulse biofilm eradication experiment; type: cell-based, Staphylococcus aureus; conditions: two subsequent 24 hour compound treatment phases
[7] = system: MRSA-1; assay: MIC broth microdilution assay; type: cell-based, Staphylococcus aureus; conditions: for MIC: Staphylococcus aureus, MRSA
[8] = system: MRSA BAA-1707; assay: MIC assay with metal(II) cation co-treatment; type: cell-based, Staphylococcus aureus
[9] = system: MRSE 35984; assay: Calgary Biofilm Device (CBD) MBC/MBEC assay; type: cell-based, Staphylococcus epidermidis; conditions: for MBC: read-out: MRSE 35984 MBC
[10] = system: human red blood cells
[11] = system: MRSA BAA-44; assay: MIC broth microdilution assay; type: cell-based; conditions: Staphylococcus aureus
[12] = system: MtB H37Ra; assay: MIC assay for Mycobacterium tuberculosis; type: cell-based; conditions: 168 h, seven days
[13] = LDH release assay for HeLa cytotoxicity; type: cell-based; conditions: human, HeLa cells; LDH release, 24 hours; tested at 25, 50 and 100 µM; read-out: HeLa Cytotox. IC50
[14] = UV-Vis metal(II) binding; type: physicochemical; conditions: UV-Vis kinetics, compared to HP 1
Experimental: The rates of halogenated phenazine-copper(II) complex formation were independently evaluated via UV-Vis spectrometry following addition of 0.5 equivalents copper(II) sulfate to stirring solutions of HP (10 mM, 4 mL) in dimethyl sulfoxide. Spectral scanning was performed from 200 to 800 nm in 2 nm increments. The disappearance of HPs 1, 17 and 22 was observed over the indicated time points. The halogenated phenazine-copper(II) complex formation yielded a loss in absorbance due to precipitation.

[15] = system: four MRSA isolates; assay: MIC assays, panel of four MRSA isolates; type: cell-based; conditions: Staphylococcus aureus, range over isolates, read-out: MIC against a panel of four MRSA isolates
[16] = Hemolysis assay with red blood cells; conditions: human, pH 7.2
[17] = system: MRSA-2; assay: MIC broth microdilution assay; type: cell-based, Staphylococcus aureus; conditions: Table 1, read-out: MIC MRSA-2
[18] = system: S. epi 12228; assay: MIC broth microdilution assay; type: cell-based, Staphylococcus epidermidis; conditions: Staphylococcus epidermidis, 12228; Table 1; read-out: MIC S. epi 12228
[19] = system: HeLa cells; assay: LDH release assay for HeLa cytotoxicity; type: cell-based; conditions: 100 µM
[20] = Chemical stability in aqueous formulations; type: physicochemical; conditions: room temperature
[21] = Table 1, read-out: MIC MRSE 35984
[22] = Table 3, read-out: MRSE 35984 MIC
[23] = CBD, planktonic killing, 24 hours treatment, read-out: MRSA BAA-1707 MBC
[24] = Staphylococcus aureus, Table 1, three independent experiments, read-out: MIC MRSA BAA-1707
[25] = Staphylococcus aureus, Table 3, read-out: MRSA BAA-1707 MIC
[26] = Staphylococcus aureus, Table 2, MRSA BAA-1707, no metal(II) cation added, read-out: MIC
[27] = Staphylococcus aureus, copper(II) at 200 µM co-treatment, read-out: MIC w/Cu2+
[28] = Staphylococcus aureus, iron(II) at 200 µM co-treatment, read-out: MIC w/Fe2+
[29] = Staphylococcus aureus, magnesium(II) at 200 µM co-treatment, read-out: MIC w/Mg2+
[30] = Staphylococcus aureus, zinc(II) at 200 µM co-treatment, read-out: MIC w/Zn2+
[31] = Table 1, three independent experiments
[32] = Table 1, read-out: MIC MRSA BAA-44
[33] = Staphylococcus epidermidis, MRSE, Table 3, read-out: MRSE 35984 MIC
[34] = Enterococcus, VRE, Table 3, read-out: VRE 700221 MIC
[35] = Staphylococcus aureus, 24 h, CBD, planktonic killing, 24 hours treatment, read-out: MRSA BAA-1707 MBC
[36] = Staphylococcus aureus, 24 h, supplement page 27, second CBD plate, read-out: MRSA Planktonic Killing MBC
[37] = supplement page 28, single CBD plate

CCCCCCCCCCCCCCCC[N+](C)(C)Cc1ccccc1.[Cl-] [BAC-16, reference compound]
MIC ([1]; Table 1, three independent experiments, read-out: MIC MRSA BAA-1707): 1.56 µM | MIC ([1]; Table 3, read-out: MRSA BAA-1707 MIC): 1.56 µM | MIC [2, 21]: 1.56 µM | MIC [2, 22]: 1.56 µM | MIC ([3]; Table 1, read-out: MIC VRE 700221): 3.13 µM | MIC ([3]; Table 3, read-out: VRE 700221 MIC): 3.13 µM | MRSA BAA-1707 MBEC ([4]; CBD, biofilm eradication, 24 hours treatment): 15.6 µM | MBC [4, 23]: 31.3 µM | VRE 700221 MBEC ([5]; CBD): 3.0 µM | MBC ([5]; CBD, planktonic killing): 5.9 µM | MBEC, pulse treatment [6]: 25 µM

O=C(O)CN(CCN(CC(=O)O)CC(=O)O)CC(=O)O [EDTA, ethylenediaminetetraacetic acid, reference compound]
MIC [1, 24]: 25 µM (≈ 7.31 µg/mL) | MIC [1, 25]: 25 µM (≈ 7.31 µg/mL) | MIC ([7]; Table 1, read-out: MIC MRSA-1): 12.5 µM (≈ 3.65 µg/mL) | MIC [8, 26]: 25 µM | MIC [8, 27]: 50 µM | MIC [8, 28]: 50 µM | MIC [8, 29]: 50 µM | MIC [8, 30]: 50 µM | MBC ([4]; Staphylococcus aureus, 24 h, read-out: MRSA BAA-1707 MBC): > 2000 µM | minimal effective concentration ([4]; Staphylococcus aureus, 24 h, read-out: MRSA BAA-1707 MBEC): > 2000 µM | minimal effective concentration ([9]; Staphylococcus epidermidis, MRSE, 24 h, read-out: MRSE 35984 MBEC): > 2000 µM | MBC ([9]; Staphylococcus epidermidis, MRSE): 1000 µM (≈ 292 µg/mL) | minimal effective concentration ([5]; Enterococcus, VRE, 24 h, read-out: VRE 700221 MBEC): 93.8 µM | MBC ([5]; Enterococcus, VRE): > 2000 µM | Hemolysis at 200 µM (%) ([10]; human, 1 h, pH 7.2): ≤1%

Oc1c(Br)cc(Br)c2nc3c(Cl)cccc3nc12 [HP 21]
MIC [1, 24]: 0.05 to 0.3 µM (≈ 0.0194 to 0.117 µg/mL) | MIC [1, 25]: 0.08 µM (≈ 0.0311 µg/mL) | MIC ([1]; Staphylococcus aureus, single plate shown as picture, read-out: MIC (µM), MIC Assay against MRSA BAA-1707): 0.1 µM (≈ 0.0388 µg/mL) | MIC MRSA BAA-1707 [1, 31]: 0.08^a µM | MIC [11, 32]: 0.59 µM (≈ 0.229 µg/mL) | MIC ([7]; Table 1, read-out: MIC MRSA-1): ≤ 0.1 µM | MIC ([7]; single plate shown as picture, read-out: MIC (µM), MIC Assay Against MRSA-1): 0.1 µM (≈ 0.0388 µg/mL) | MIC [2, 33]: 0.3 µM (≈ 0.117 µg/mL) | MIC ([2]; Staphylococcus epidermidis, MRSE, single plate shown as picture, read-out: MIC (µM), MIC Assay Against MRSE 35984): 0.2 µM (≈ 0.0777 µg/mL) | MIC [3, 34]: 1.56 µM (≈ 0.606 µg/mL) | MIC ([3]; Enterococcus, VRE, single plate shown as picture, read-out: MIC (µM), MIC Assay Against VRE 700221): 1.56 µM (≈ 0.606 µg/mL) | MIC [12]: 50 µM (≈ 19.4 µg/mL) | IC50 at 24 h [13]: > 100 µM | MIC ([8]; Staphylococcus aureus, Fe(II) co-treatment plate, lanes without metal, read-out: MIC): 0.1 µM | MIC [8, 26]: 0.1 µM | MIC ([8]; Staphylococcus aureus, Zn(II) extended plate assay, lanes without metal, read-out: MIC): 0.1 µM | MIC [8, 27]: 6.25 µM | MIC [8, 28]: 0.59 µM | MIC [8, 29]: 0.15 µM | MIC [8, 30]: 0.15 µM | MIC ([8]; extended plate assay, 200 µM Zn(II), read-out: MIC (µM) + Zn(II)): 0.10 µM | MIC ([8]; single plate, 200 µM Fe(II), read-out: MIC (µM) + Fe(II)): 0.78 µM | rate of copper(II) chelation [14]: faster rate than HP 1 | MBC [4, 35]: 6.25 µM (≈ 2.43 µg/mL) | MBC [4, 36]: 6.25 µM (≈ 2.43 µg/mL) | VRE 700221 MBEC ([5]; CBD): 25/25 µM | MBC ([5]; Enterococcus, VRE, CBD, planktonic killing): 25 µM (≈ 9.71 µg/mL) | MIC [15]: 0.05 to 0.59 µM (≈ 0.0194 to 0.229 µg/mL) | hemolysis at 1 h, 200 µM [16]: ≤ 1%

COCCOCCOCCOCCOC(=O)Oc1c(Br)cc(Br)c2nc3ccccc3nc12 [HP 24]
MIC ([11]; single plate shown as picture, read-out: MIC (µM), MIC Assay Against MRSA BAA-44): 1.56 µM (≈ 0.918 µg/mL) | MIC [11, 32]: 1.56 µM (≈ 0.918 µg/mL) | MIC ([17]; Staphylococcus aureus, MRSA): 2.35 µM (≈ 1.38 µg/mL) | MIC ([2]; Staphylococcus epidermidis, MRSE, Table 1, read-out: MIC MRSE 35984): 1.56 µM (≈ 0.918 µg/mL) | MIC [2, 33]: 1.56 µM (≈ 0.918 µg/mL) | MIC [18]: 0.78 µM (≈ 0.459 µg/mL) | MIC ([3]; Enterococcus, VRE, Table 1, read-out: MIC VRE 700221): 6.25 µM (≈ 3.68 µg/mL) | MIC [3, 34]: 6.25 µM (≈ 3.68 µg/mL) | MIC [12]: 25 µM (≈ 14.7 µg/mL) | IC50 at 24 h [13]: > 100 µM | HeLa cell cytotoxicity at 100 µM [19]: no HeLa cell cytotoxicity | MBC [4, 35]: 75 µM (≈ 44.1 µg/mL) | MBC [4, 36]: 100 µM (≈ 58.8 µg/mL) | MBC ([9]; Staphylococcus epidermidis, MRSE, CBD, planktonic killing): 75 µM (≈ 44.1 µg/mL) | MRSE Biofilm Eradication MBEC [9, 37]: 100 µM | MRSE Planktonic Killing MBC [9, 37]: 50 µM | chemically stable in aqueous formulations [20]: > 1 month | hemolysis at 1 h, 200 µM [16]: 2.4%

c1ccc(CN(CCN(Cc2ccccn2)Cc2ccccn2)Cc2ccccn2)nc1 [TPEN, reference compound]
MIC MRSA BAA-1707 [1, 31]: 46.9^a µM | MRSA BAA-1707 MIC ([1]; Table 3): 46.9^a µM | MIC MRSA-1 ([7]; Table 1): 75^a µM | MIC [17]: 50 µM (≈ 21.2 µg/mL) | MIC [2, 21]: 12.5 µM (≈ 5.31 µg/mL) | MIC [2, 22]: 12.5 µM (≈ 5.31 µg/mL) | MIC ([8]; Table 2, MRSA BAA-1707, no metal(II) cation added): 46.9^a µM | MIC ([8]; copper(II) at 200 µM co-treatment, read-out: MIC w/Cu2+): 500 µM | MIC ([8]; iron(II) at 200 µM co-treatment, read-out: MIC w/Fe2+): 125 µM | MIC ([8]; magnesium(II) at 200 µM co-treatment, read-out: MIC w/Mg2+): 62.5 µM | MIC ([8]; zinc(II) at 200 µM co-treatment, read-out: MIC w/Zn2+): 250 µM | MBC [4, 23]: 375 µM (≈ 159 µg/mL) | MRSA-1707 Biofilm Eradication MBEC ([4]; Figure 7A, single CBD plate): > 2000 µM | MBC ([4]; Figure 7A, single CBD plate, read-out: MRSA-1707 Planktonic Eradication MBC): 250 µM (≈ 106 µg/mL) | MRSA Biofilm Eradication MBEC ([4]; supplement page 27, first CBD plate): > 2000 µM | MBC ([4]; supplement page 27, first CBD plate, read-out: MRSA Planktonic Killing MBC): 250 µM (≈ 106 µg/mL) | MRSE 35984 MBEC ([9]; CBD, biofilm eradication): > 2000 µM | MBC ([9]; CBD, planktonic killing): 250 µM (≈ 106 µg/mL) | Hemolysis at 200 µM (%) [10]: ≤1%
